Structures can show the parent of a compound that is named as a salt. Where two headings read alike, the source gives them in different places.
Test: phase I plasma pharmacokinetics (non-compartmental, LC-MS/MS)
Format: in vivo, human
Conditions: plasma, plasma; for Tmax / Vd/F / AUC(0-t) / AUC(0-inf) / Cmax / half-life / AUC: human; for Tmax / Vd/F / AUC(0-t) / AUC(0-inf) / Cmax / half-life: po; for AUC: read-out: AUCτ,ss, mean (min–max)
Protocol: This was a phase I, single-center, open-label, dose-escalation study conducted at First Hospital of Jilin University, China (registration no.: ChiCTR-OPC-15007153 registered at http://www.chictr.org.cn). Larotinib mesylate hard capsules were produced and supplied by Sunshine Lake Pharma Co., Ltd (Guangdong Province, China) in different unit doses of […] under GMP condition. Seven dose levels were designed in the study: 50, 100, 150, 220, 300, 350, and 400 mg with administration stages labeled cycle 0, cycle 1, and subsequent treatment cycles. Patients received an oral single dose of larotinib mesylate after fasting during a 6-days cycle 0 to evaluate the tolerance and pharmacokinetic characteristics. After cycle 0, larotinib mesylate was continuously administered once daily for 28 days in cycle 1, and the tolerance and pharmacokinetic characteristics of multiple doses were evaluated (Figure 2). The patients who […] disease control (complete response [CR], partial response [PR], or stable disease [SD]) at the end of cycle one were permitted to participate in the subsequent 28-days treatment cycles until progressive disease (PD) or intolerance was observed.
Blood samples (4 ml) for pharmacokinetic analyses were collected in tubes containing K2EDTA anticoagulant. Blood samples were centrifuged at 3,000 rpm for 10 min at 4°C and stored at –80°C until liquid chromatography-mass spectrophotometry (LC-MS/MS) analysis. Urine and fecal samples were collected only when patients were given the150-mg and 220-mg dose levels at sampling time intervals of 0–4, 4–8, 8–12, 12–24, 24–48, 48–72, 72–96 and 96–120 h in cycle 0.
Linear mixed effects model was used to explore the dose exposure relationships. Dose proportionality was concluded if the 95% confidence interval (CI) of the linear regression slope was completely contained within the decision interval (1 + ln (0.8)/ln (8)∼1 + ln (1.25)/ln (8)). For urine and fecal data, the accumulative excretion rates of larotinib and M5 were calculated.
Bioanalysis was performed at Frontage Company (Shanghai, China). Validated high-performance LC-MS/MS method was used to quantify the concentrations of larotinib and M5 in plasma, urine and feces samples. Protein precipitation was employed for plasma, urine and feces processing. Plasma larotinib and M5 concentrations were determined using appropriate calibration curves obtained from standards in the range of 0.5–1,000 ng/ml. The interassay precision of the analysis method were 4.2–5.4% for larotinib and 3.9–4.3% for M5. The interassay accuracy of the analysis method were 100.4–103.4% for larotinib and 102.2–102.9% for M5, respectively.
Statistical analyses were performed using SAS software, version 9.2 (SAS Institute Inc., United States). Descriptive statistics were used to summarize continuous variables as cases, means with standard deviations (SDs), medians, quartiles, maximums and minimums. For categorical variables, frequencies and percentages were used. A linear mixed effects model, relating log-transformed Cmax and AUC parameters to log-transformed dose, was used to investigate dose proportionality.

[1] = multiple oral administration, 50 mg larotinib mesylate, steady state
[2] = multiple oral administration, 100 mg larotinib mesylate, steady state
[3] = multiple oral administration, 150 mg larotinib mesylate, steady state
[4] = multiple oral administration, 220 mg larotinib mesylate, steady state
[5] = multiple oral administration, 300 mg larotinib mesylate, steady state
[6] = multiple oral administration, 350 mg larotinib mesylate, steady state
[7] = multiple oral administration, 400 mg larotinib mesylate, steady state

Q: Which results are given for `COc1cc2ncnc(Nc3ccc(F)c(Cl)c3)c2cc1OCCCN1C[C@@H]2OCCO[C@@H]2C1` [larotinib mesylate]?
A: Tmax (300 mg, multiple oral administration, 300 mg larotinib mesylate, steady state, read-out: Tmax,ss, median (min–max)): 5 h; Vd/F (300 mg, multiple oral administration, 300 mg larotinib mesylate, steady state, read-out: Vz/F,ss, mean (min–max)): 1060 L; AUC(0-t) (300 mg, single oral administration, 300 mg larotinib mesylate, read-out: AUC0-24, mean (min–max)): 2690 ng·h/mL; AUC(0-t) (300 mg, single oral administration, 300 mg larotinib mesylate, read-out: AUC0-t, mean (min–max)): 4880 ng·h/mL; AUC(0-inf) (300 mg, single oral administration, 300 mg larotinib mesylate, read-out: AUC0-∞, mean (min–max)): 5550 ng·h/mL; Cmax (300 mg, single oral administration, 300 mg larotinib mesylate, read-out: Cmax, mean (min–max)): 267 ng/mL; half-life (300 mg, single oral administration, 300 mg larotinib mesylate, read-out: T1/2, mean (min–max) (converted)): 1.93 days; Tmax (300 mg, single oral administration, 300 mg larotinib mesylate, read-out: Tmax, median (min–max)): 5 h; Vd/F (300 mg, single oral administration, 300 mg larotinib mesylate, read-out: Vz/F, mean (min–max)): 4340 L; AUC(0-t) (350 mg, multiple oral administration, 350 mg larotinib mesylate, steady state, read-out: AUC0-t,ss, mean (min–max)): 35900 ng·h/mL; AUC(0-inf) (350 mg, multiple oral administration, 350 mg larotinib mesylate, steady state, read-out: AUC0-∞,ss, mean (min–max)): 47300 ng·h/mL; Cmax (350 mg, multiple oral administration, 350 mg larotinib mesylate, steady state, read-out: Cmax,ss, mean (min–max)): 695 ng/mL; half-life (350 mg, multiple oral administration, 350 mg larotinib mesylate, steady state, read-out: T1/2,ss, mean (min–max) (converted)): 2.44 days; Tmax (350 mg, multiple oral administration, 350 mg larotinib mesylate, steady state, read-out: Tmax,ss, median (min–max)): 5 h; Vd/F (350 mg, multiple oral administration, 350 mg larotinib mesylate, steady state, read-out: Vz/F,ss, mean (min–max)): 641 L; AUC(0-t) (350 mg, single oral administration, 350 mg larotinib mesylate, read-out: AUC0-24, mean (min–max)): 3240 ng·h/mL; AUC(0-t) (350 mg, single oral administration, 350 mg larotinib mesylate, read-out: AUC0-t, mean (min–max)): 6120 ng·h/mL; AUC(0-inf) (350 mg, single oral administration, 350 mg larotinib mesylate, read-out: AUC0-∞, mean (min–max)): 6830 ng·h/mL; Cmax (350 mg, single oral administration, 350 mg larotinib mesylate, read-out: Cmax, mean (min–max)): 300 ng/mL; half-life (350 mg, single oral administration, 350 mg larotinib mesylate, read-out: T1/2, mean (min–max) (converted)): 1.86 days; Tmax (350 mg, single oral administration, 350 mg larotinib mesylate, read-out: Tmax, median (min–max)): 3.5 h; Vd/F (350 mg, single oral administration, 350 mg larotinib mesylate, read-out: Vz/F, mean (min–max)): 3800 L; AUC(0-t) (400 mg, multiple oral administration, 400 mg larotinib mesylate, steady state, read-out: AUC0-t,ss, mean (min–max)): 45000 ng·h/mL; AUC(0-inf) (400 mg, multiple oral administration, 400 mg larotinib mesylate, steady state, read-out: AUC0-∞,ss, mean (min–max)): 70400 ng·h/mL; Cmax (400 mg, multiple oral administration, 400 mg larotinib mesylate, steady state, read-out: Cmax,ss, mean (min–max)): 845 ng/mL; half-life (400 mg, multiple oral administration, 400 mg larotinib mesylate, steady state, read-out: T1/2,ss, mean (min–max) (converted)): 3.63 days; Tmax (400 mg, multiple oral administration, 400 mg larotinib mesylate, steady state, read-out: Tmax,ss, median (min–max)): 6 h; Vd/F (400 mg, multiple oral administration, 400 mg larotinib mesylate, steady state, read-out: Vz/F,ss, mean (min–max)): 754 L; AUC(0-t) (400 mg, single oral administration, 400 mg larotinib mesylate, read-out: AUC0-24, mean (min–max)): 3970 ng·h/mL; AUC(0-t) (400 mg, single oral administration, 400 mg larotinib mesylate, read-out: AUC0-t, mean (min–max)): 7440 ng·h/mL; AUC(0-inf) (400 mg, single oral administration, 400 mg larotinib mesylate, read-out: AUC0-∞, mean (min–max)): 9090 ng·h/mL; Cmax (400 mg, single oral administration, 400 mg larotinib mesylate, read-out: Cmax, mean (min–max)): 354 ng/mL; half-life (400 mg, single oral administration, 400 mg larotinib mesylate, read-out: T1/2, mean (min–max) (converted)): 2.86 days; Tmax (400 mg, single oral administration, 400 mg larotinib mesylate, read-out: Tmax, median (min–max)): 5 h; Vd/F (400 mg, single oral administration, 400 mg larotinib mesylate, read-out: Vz/F, mean (min–max)): 7410 L; half-life (single oral dose, across 50–400 mg, read-out: mean t1/2): 1.64 to 2.86 days; Tmax (single oral dose, across 50–400 mg, read-out: median Tmax): 3.5 to 6 h; AUC [1]: 1220 ng·h/mL; AUC [2]: 1970 ng·h/mL; AUC [3]: 6500 ng·h/mL; AUC [4]: 10300 ng·h/mL; AUC [5]: 7260 ng·h/mL; AUC [6]: 13200 ng·h/mL; AUC [7]: 16100 ng·h/mL; CL/F,ss, mean (min–max) [1]: 10.73 (7.513–12.58) L/h; CL/F,ss, mean (min–max) [2]: 21.17 (13.80–29.53) L/h; CL/F,ss, mean (min–max) [3]: 6.512 (4.414–7.565) L/h; CL/F,ss, mean (min–max) [4]: 5.126 (4.592–6.098) L/h; CL/F,ss, mean (min–max) [5]: 13.91 (10.58–18.36) L/h; CL/F,ss, mean (min–max) [6]: 7.648 (5.819–8.842) L/h; CL/F,ss, mean (min–max) [7]: 6.087 (4.160–7.894) L/h; CL/F, mean (min–max) (single oral administration, 50 mg larotinib mesylate): 62.01 (54.17–71.3) L/h; CL/F, mean (min–max) (single oral administration, 100 mg larotinib mesylate): 73.81 (62.61–90.83) L/h; CL/F, mean (min–max) (single oral administration, 150 mg larotinib mesylate): 29.11 (18.30–38.09) L/h; CL/F, mean (min–max) (single oral administration, 220 mg larotinib mesylate): 27.79 (24.27–33.83) L/h; CL/F, mean (min–max) (single oral administration, 300 mg larotinib mesylate): 63.76 (30.15–116.4) L/h; CL/F, mean (min–max) (single oral administration, 350 mg larotinib mesylate): 55.78 (36.19–73.27) L/h; CL/F, mean (min–max) (single oral administration, 400 mg larotinib mesylate): 70.47 (29.90–145.6) L/h
